How the values were obtained:
immobilized GMP-140 [1] = experiment: Neutrophil adhesion to purified GMP-140 immobilized on plastic wells (myeloperoxidase read-out); assay type: cell-based, human; conditions: peptide screen, result in words
Description: (§1) Peptides were screened for their ability to inhibit neutrophil adhesion to purified GMP-140 immobilized on plastic wells, using the assay described by Geng, et al., Nature 343, 757-760 (1990).
(§2) Human neutrophils are isolated from heparinized whole blood by density gradient centrifugation on Mono-Poly resolving media, Flow Laboratories. Neutrophil suspensions are greater than 98% pure and greater than 95% viable by trypan blue exclusion. For adhesion assays, neutrophils are suspended at a concentration of 2 x 10^6 cells/ml in Hanks' balanced salt solution containing 1.26 mM Ca^2+ and 0.81 mM Mg^2+ (HBSS, Gibco) with 5 mg/ml human serum albumin (HBSS/HSA). Adhesion assays are conducted in triplicate in 96-well microtiter plates, Corning, incubated at 4°C overnight with 50 microliters of various protein solutions.
GMP-140 is plated at 5 micrograms/ml and the control proteins: human serum albumin (Alb), platelet glycoprotein IIb/IIIa (IIb), von Willebrand factor (vWF), fibrinogen (FIB), thrombomodulin (TM), gelatin (GEL) or human serum (HS), are added at 50 micrograms/ml. All wells are blocked for 2 h at 22°C with 300 microliters HBSS containing 10 mg/ml HSA, then washed three times with HBSS containing 0.1% Tween-20 and once with HBSS. Cells (2 x 10^5 per well were added to the wells and incubated at 22°C for 20 min. The wells were then filled with HBSS/HSA, sealed with acetate tape (Dynatech), and centrifuged inverted at 150 g for 5 min. After discarding nonadherent cells and supernates, the contents of each well are solubilized with 200 microliters 0.5% hexadecyltrimethylammonium bromide, Sigma, in 50 mM potassium phosphate, pH 6.0, and assayed for myeloperoxidase activity, Ley, et al., Blood 73, 1324-1330 (1989). The number of cells bound was derived from a standard curve of myeloperoxidase activity versus numbers of cells. Under all assay conditions, the cells released less than 5% of total myeloperoxidase and lactate dehydrogenase. Results are presented in Table I. 100% adhesion is that seen in the presence of the C-terminal peptide (amino acid residues 761-777 of GMP-140) as a negative control; this value is the same as controls in which neither peptide nor antibody is added to the cells. Inhibition is read as a lower percent adhesion, so that a value of 5% means that 95% of the specific adhesion was inhibited.
Peptides from the lectin-like domain of GMP-140 were assayed for their ability to inhibit adhesion of neutrophils to immobilized GMP-140 in the assay described in example 1. Concentrations tested ranged from 0.1 mM to 1.5 mM.

immobilized GMP-140 [2] = experiment: ELISA (avidin detection) of binding of biotinylated monoclonal antibodies G1, G2, G3 to immobilized GMP-140 in presence of soluble peptide; parameters: species or system human
Experimental: Based on competitive ELISAs with the purified protein, G1, G2, and G3 each recognize distinct or only partially overlapping epitopes. 1.5 mM peptide was added to biotinylated mAb at a concentration of 2.5 micrograms/ml, which were then added to the wells containing GMP-140, as described in example 1. Binding was measured by an ELISA with an avidin detection system.
The monoclonal antibodies were biotinylated as follows: to 0.5 ml of purified IgG antibody (1 mg/ml in PBS, pH 7.4) was added 50 µl of 3.2 mM N-hydroxysuccinimide biotin in dimethyl sulfoxide and 50 µl of 1 M NaHCO3. After a 2 hour incubation at room temperature in the dark, the reaction was stopped with 50 µl of 1 M NH4Cl. The biotinylated antibody was then separated from other components by gel filtration on a PD-10 column equilibrated in PBS. The ELISA was performed as follows; all steps were performed at room temperature.
Biotinylated antibody (2.5 µg/ml) with or without 1.5 mM peptide was incubated with wells coated with GMP-140 as described in example 1. After a 2 hour incubation, the antibody was removed, the wells were washed, and 0.1 ml of horseradish peroxidase-conjugated stepavidin (Pierce), diluted 1:1,000 in HBSS/HSA, was added for 30 min. The wells were then washed and 0.1 ml of peroxidase substrate (Pierce) was added for 15 min. The color reaction was read at 405 nm.

neutrophils = experiment: Adhesion of neutrophils to microtiter wells coated with lectin peptide 19-34-KLH conjugate or GMP-140; assay type: cell-based, human; conditions: peptide 1.5 mM; Figure 3
Experimental: GMP-140 is plated at 5 micrograms/ml and the control proteins: human serum albumin (Alb), platelet glycoprotein IIb/IIIa (IIb), von Willebrand factor (vWF), fibrinogen (FIB), thrombomodulin (TM), gelatin (GEL) or human serum (HS), are added at 50 micrograms/ml. All wells are blocked for 2 h at 22°C with 300 microliters HBSS containing 10 mg/ml HSA, then washed three times with HBSS containing 0.1% Tween-20 and once with HBSS. […] Inhibition is read as a lower percent adhesion, so that a value of 5% means that 95% of the specific adhesion was inhibited.
Lectin peptide 19-34 was conjugated to the carrier protein keyhole limpet hemocyanin by its N-terminal cysteine by standard procedures such as the commercial Imject kit from Pierce Chemicals. This peptide-KLH conjugate was then tested in the assay described in example 1 and the numbers of cells bound determined. […]

immobilized GMP-140 [3] = molecular target: T1, immobilized GMP-140 (Homo sapiens, UniProt P16109); experiment: Neutrophil adhesion to purified GMP-140 immobilized on plastic wells (myeloperoxidase read-out); assay type: cell-based; conditions: concentrations up to 300 µM
T1 construct: from tissue; host or cells: outdated human platelet packs
T1 sequence (P16109 42-830): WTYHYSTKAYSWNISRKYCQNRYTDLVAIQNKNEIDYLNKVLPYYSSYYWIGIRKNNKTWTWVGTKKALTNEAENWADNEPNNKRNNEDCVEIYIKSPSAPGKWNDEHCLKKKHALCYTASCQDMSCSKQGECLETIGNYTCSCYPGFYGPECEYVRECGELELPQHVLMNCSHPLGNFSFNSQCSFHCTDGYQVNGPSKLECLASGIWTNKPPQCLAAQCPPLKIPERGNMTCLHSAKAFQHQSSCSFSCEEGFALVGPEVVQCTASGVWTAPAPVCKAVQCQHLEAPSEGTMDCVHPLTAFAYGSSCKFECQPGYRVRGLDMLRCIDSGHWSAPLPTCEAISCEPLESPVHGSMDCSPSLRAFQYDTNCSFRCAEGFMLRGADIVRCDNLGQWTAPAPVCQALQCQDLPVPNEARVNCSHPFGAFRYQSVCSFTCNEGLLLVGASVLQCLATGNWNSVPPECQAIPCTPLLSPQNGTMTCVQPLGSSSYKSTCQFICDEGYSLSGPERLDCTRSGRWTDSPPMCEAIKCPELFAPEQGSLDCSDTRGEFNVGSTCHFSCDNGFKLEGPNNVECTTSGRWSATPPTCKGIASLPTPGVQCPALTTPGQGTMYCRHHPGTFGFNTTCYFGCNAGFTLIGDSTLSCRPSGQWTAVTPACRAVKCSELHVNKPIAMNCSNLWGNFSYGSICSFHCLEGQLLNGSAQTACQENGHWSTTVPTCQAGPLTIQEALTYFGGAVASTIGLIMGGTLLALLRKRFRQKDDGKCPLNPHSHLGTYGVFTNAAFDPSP
Description: as §1, §2
GMP-140 is plated at 5 micrograms/ml and the control proteins: human serum albumin (Alb), platelet glycoprotein IIb/IIIa (IIb), von Willebrand factor (vWF), fibrinogen (FIB), thrombomodulin (TM), gelatin (GEL) or human serum (HS), are added at 50 micrograms/ml. All wells are blocked for 2 h at 22°C with 300 microliters HBSS containing 10 mg/ml HSA, then washed three times with HBSS containing 0.1% Tween-20 and once with HBSS. […] Inhibition is read as a lower percent adhesion, so that a value of 5% means that 95% of the specific adhesion was inhibited. […]

Row | Molecule | inhibition of neutrophil adhesion to immobilized GMP-140 by peptides (immobilized GMP-140 [1]) | % Binding of Biotinylated MAbs G1 (immobilized GMP-140 [2]; peptide 1.5 mM added to biotinylated mAb G1 (2.5 micrograms/ml) before addition to immobilized GMP-140) [%] | % Binding of Biotinylated MAbs G2 (immobilized GMP-140 [2]; peptide 1.5 mM added to biotinylated mAb G2 (2.5 micrograms/ml) before addition to immobilized GMP-140) [%] | % Binding of Biotinylated MAbs G3 (immobilized GMP-140 [2]; peptide 1.5 mM added to biotinylated mAb G3 (2.5 micrograms/ml) before addition to immobilized GMP-140) [%] | competition by fluid-phase competitor for neutrophil adhesion to immobilized lectin peptide 19-34-KLH conjugate (neutrophils) | effect on binding of neutrophils to purified, immobilized GMP-140 (immobilized GMP-140 [3])
1 | LECTIN 19-34: synthetic peptide, amino acids 19-34 of the lectin domain of GMP-140 (CQNRYTDLVAIQNKNE; UniProt P16109 60-75, looked up, fragment) | inhibited adhesion | 23 | 26 | 24 | compete for adhesion | 
2 | CC(=O)N[C@H]1[C@H](O[C@H]2[C@@H](O)[C@@H](CO)O[C@@H](O[C@H]3[C@H](O)[C@@H](O)C(O)O[C@@H]3CO)[C@@H]2O)O[C@H](CO)[C@@H](O[C@@H]2O[C@H](CO)[C@H](O)[C@H](O)[C@H]2O)[C@@H]1O[C@@H]1O[C@@H](C)[C@@H](O)[C@@H](O)[C@@H]1O (stereo partly drawn) [LNFIII] |  |  |  |  |  | absolutely no effect
